One data set has as its system E. coli. The data set can be described thus: MIC versus efflux impaired and porin deficient strains. The conditions noted are these: Escherichia coli. The class given is cell-based. The method, then: (§1) MIC determinations were performed using the broth microdilution method and in line with CLSI guidelines M07 and M100 (refs. [37],[38]). Bacterial inocula were prepared by diluting a 0.5 McFarland suspension in CAMHB or lysogeny broth (LB) specifically for A. baylyi isolates. […] MIC values of all of the tested antibiotics were read as the lowest compound concentration inhibiting bacterial growth by naked eye or beyond which the OD600 ceased to decrease.

The test system of the next data set is P. aeruginosa. The description is as above. The class given is cell-based, Pseudomonas aeruginosa. Here is the method: as §1
The next data set deals with A. baumannii. The data set can be described thus: Agar dilution MIC, Mueller–Hinton agar with 20% human serum. The class given is cell-based. Conditions: Acinetobacter baumannii. Here is the method: Molten Mueller–Hinton agar (19 ml) supplemented with 20% human serum was added to 1 ml of compound at 20× the final concentration, poured immediately into Petri dishes (100 mm diameter) and gently mixed. Then, 2–3 colonies from agar plates were inoculated into CAMHB and incubated overnight under shaking (150 rpm). […] The agar plates were incubated aerobically at 35 ± 2 °C.
A general note: In agar dilution, organisms are placed on agar that contains the substance at set levels.

Data set [1] concerns A. baylyi ADP1 (ATCC 33305). The data set can be described thus: MIC of constructed lptF mutants in LB, OD600. The class given is cell-based, Acinetobacter baylyi. Here is the method:
as §1
Culture, genetic manipulation and MIC measurements of A. baylyi ADP1 were conducted according to previously reported procedures[56],[57].

For another data set, the target named is T1, E. coli LptB2FGC (Escherichia coli, UniProt P0ADC6+P0AF98).
T1 construct: made in house; host or cells: E. coli C43(λDE3)
T1 sequence (P0AF98 whole entry): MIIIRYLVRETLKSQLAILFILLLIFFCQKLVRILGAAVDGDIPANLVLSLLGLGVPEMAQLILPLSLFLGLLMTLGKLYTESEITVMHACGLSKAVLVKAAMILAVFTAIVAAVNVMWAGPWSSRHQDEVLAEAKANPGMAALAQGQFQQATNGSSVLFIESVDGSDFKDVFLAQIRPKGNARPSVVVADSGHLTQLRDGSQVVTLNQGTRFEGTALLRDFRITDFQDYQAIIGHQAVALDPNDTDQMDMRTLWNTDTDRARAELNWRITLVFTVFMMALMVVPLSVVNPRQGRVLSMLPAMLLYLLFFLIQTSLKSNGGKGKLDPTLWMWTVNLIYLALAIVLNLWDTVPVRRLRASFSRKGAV
T1 sequence (P0ADC6 whole entry): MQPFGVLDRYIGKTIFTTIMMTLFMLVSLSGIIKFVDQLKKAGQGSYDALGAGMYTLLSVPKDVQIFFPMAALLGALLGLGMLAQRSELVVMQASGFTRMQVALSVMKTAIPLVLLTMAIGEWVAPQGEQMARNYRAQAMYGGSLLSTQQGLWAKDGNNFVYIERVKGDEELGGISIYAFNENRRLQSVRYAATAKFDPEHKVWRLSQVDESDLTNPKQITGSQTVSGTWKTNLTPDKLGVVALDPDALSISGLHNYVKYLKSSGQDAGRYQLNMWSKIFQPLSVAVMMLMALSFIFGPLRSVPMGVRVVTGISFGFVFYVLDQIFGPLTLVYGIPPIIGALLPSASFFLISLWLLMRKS
T1 sequence (P0A9V1 whole entry partner): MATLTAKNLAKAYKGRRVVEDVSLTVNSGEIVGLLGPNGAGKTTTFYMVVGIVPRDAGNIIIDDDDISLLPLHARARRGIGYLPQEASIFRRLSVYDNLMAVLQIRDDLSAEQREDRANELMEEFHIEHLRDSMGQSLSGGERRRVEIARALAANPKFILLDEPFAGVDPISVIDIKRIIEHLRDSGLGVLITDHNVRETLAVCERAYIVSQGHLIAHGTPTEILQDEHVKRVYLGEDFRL
T1 sequence (P0ADV9 whole entry partner): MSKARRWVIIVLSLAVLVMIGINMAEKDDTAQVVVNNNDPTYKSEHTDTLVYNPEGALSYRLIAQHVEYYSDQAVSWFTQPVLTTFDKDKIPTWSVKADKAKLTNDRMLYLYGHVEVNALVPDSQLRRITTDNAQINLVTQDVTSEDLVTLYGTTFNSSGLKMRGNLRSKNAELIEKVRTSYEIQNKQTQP
The data set can be described thus: LPS-release assay, proteoliposomes to LptA. The conditions noted are these: E. coli LptB2FGC proteins. The class given is biochemical. Here is the method: The levels of release of LPS from proteoliposomes to LptA were measured as previously described. Assays used 60% proteoliposomes (by volume) in a solution containing 50 mM Tris-HCl (pH 8.0), 500 mM NaCl, 10% glycerol and 2 µM LptA^I36pBPA. Reaction mixtures were incubated with drug for 10 min at room temperature, as applicable. Reactions were then initiated by the addition of ATP and MgCl2 (final concentrations of 5 mM and 2 mM, respectively) and proceeded at 30 °C. Aliquots (25 µl) were removed from the reaction mixtures and irradiated with ultraviolet light (365 nm) on ice for 10 min using a B-100AP lamp (Thermo Fisher Scientific). After ultraviolet irradiation, 25 µl 2× SDS–PAGE sample loading buffer was added, the samples were boiled for 10 min and proteins were separated using Tris-HCl 4–20% polyacrylamide gradient gels with Tris-glycine running buffer. Immunoblotting was conducted as described above.

Data set [2] is described as follows: Human plasma precipitation assay. On the set-up: key: 0: none; 1: mild; 2: moderate; 3: marked. The conditions noted are these: observed only at 2 mg/mL (0.125–2 mg/mL tested). The method, then:
For the plasma precipitation assay, test item formulations of compounds were diluted as follows with the vehicle (0.9% aqueous sodium chloride solution): undiluted, 1:2, 1:4, 1:8 and 1:16. These serial dilutions were then added into test tubes containing 0.5 ml of plasma to give a final assay volume of 1 ml with a final concentration of 4 mg ml^−1 assay volume or less. After centrifugation of the samples (1,811g; 10 min; at room temperature), plasma precipitation was visually determined by scoring the resulting pellet (score: 0, none; 1, mild; 2, moderate; 3, marked).

The test system of the next data set is A. baumannii ACC01073. The data set can be described thus: Time–kill kinetics. The class given is cell-based, Acinetobacter baumannii. Here is the method: Time–kill studies were performed according to the CLSI standard procedure M26-A[40]. […] A. baumannii colonies from agar plates were inoculated into CAMHB supplemented with 20% human serum and incubated overnight at 35 ± 2 °C in ambient air under shaking. The overnight culture was diluted 1:10,000 and further incubated for 2 h. A total of 5 ml of the bacterial log-phase suspension was transferred into six-well plates. […] The six-well plates were incubated at 35 ± 2 °C in ambient air under shaking (100 rpm) for 24 h, 150 μl was withdrawn at the selected timepoints (0, 2, 4, 8, 12, 16, 20 and 24 h), diluted, plated on a Mueller–Hinton agar plate and incubated overnight for CFU determination. GraphPad Prism v.8 was used for graphical presentation of the data.

Data set [3] can be described thus: Distribution coefficient logD7.4. The class given is physicochemical. The conditions noted are these: pH 7.4.

Values after ≈ are worked out from the molar mass of the structure shown. Like-named read-outs stand apart in the source and are kept apart here. Bounds are passed on as bounds.

What is called MIC is the lowest concentration found to suppress growth. As to `CN1C(=O)[C@H](CCCCN)NC(=O)[C@H](CCCN)NCc2cccnc2Sc2c(Cl)ccc(Cl)c2CNC(=O)[C@@H]1Cc1c[nH]c2ccccc12` [RO7075573], the MIC is above 64 µg/mL with E. coli (E. coli 7623, WT, CAMHB, 100% inhibition, n = 1); 32 µg/mL (≈ 43.3 µM) with E. coli (E. coli 7623-, efflux impaired, Δ tolC); above 64 µg/mL against E. coli (E. coli R1535, porin deficient, Δ (OmpC; OmpF)); above 64 µg/mL in the data set on P. aeruginosa (P. aeruginosa PAOD1, porin deficient, PAO1 Δ oprD); above 64 µg/mL in the data set with P. aeruginosa (Pseudomonas aeruginosa, P. aeruginosa PAO1, WT, read-out: MIC); 64 µg/mL (≈ 86.5 µM) with P. aeruginosa (Pseudomonas aeruginosa, P. aeruginosa PAO397, efflux impaired and porin deficient, read-out: MIC).

As to `CN1C(=O)[C@H](CCCCN)NC(=O)[C@H](CCCN)NCc2cccnc2Sc2cccc(-c3ccc(C(=O)O)cc3)c2CNC(=O)[C@@H]1Cc1c[nH]c2ccccc12` [zosurabalpin], the MIC in the data set on A. baumannii (ACC00445) is 0.25 µg/mL (≈ 0.316 µM); against A. baumannii (ACC00535) it was 0.12 µg/mL (≈ 0.152 µM); against A. baumannii (ACC01073), 1 µg/mL (≈ 1.26 µM); in the data set on A. baumannii (ACC01077) it was 0.25 µg/mL (≈ 0.316 µM); against A. baumannii (ACC01085/AR0307) it was 0.25 µg/mL (≈ 0.316 µM); in the data set on A. baumannii (ATCCBAA747, ATCC BAA-747), 0.12 µg/mL (≈ 0.152 µM). Moreover, the MIC against A. baumannii (ROB08706) is 1 µg/mL (≈ 1.26 µM); against A. baumannii (ROB08708) it was 0.12 µg/mL (≈ 0.152 µM). The “Fold MIC increase” value is listed as above 700 in data set [1] (constructed LptF (E249K&I317N)); 242 in data set [1] (constructed LptF E249K); 128 in data set [1] (constructed LptF I317N); 20 in data set [1] (constructed LptF K320T); 9 in data set [1] (constructed LptF R322C). Also, the “LPS extraction to LptA” value on E. coli LptB2FGC is on record as “no effect on LPS extraction”. Besides, in data set [2], the Precipitation score result is “Observed only at 2 mg/mL^6 (1)”. In addition, in the data set on A. baumannii ACC01073, the “Time–kill outcome” value is “bactericidal effect above 4× MIC”. Besides, in data set [3], the logD7.4 result is “–2.46”.
